Measurements reported in the NIST ThermoML archive (doi:10.1016/j.jct.2015.12.029).

Test: mn = molality of the nth substance listed, in mol/kg
Settings: 100 kPa, Liquid; for molar conductivity: Alternating current cell with electrodes; for mass density: Vibrating tube method, m1 = 0.009007

CCCCn1cc[n+](C)c1.F[B-](F)(F)F [1-butyl-3-methylimidazolium tetrafluoroborate] + CCCCO
molar conductivity [S·m2/mol]
Settings | 283.15 K | 288.15 K | 293.15 K | 298.15 K | 303.15 K | 308.15 K | 313.15 K | 318.15 K
m1 = 7.252e-05 | 0.00118 | 0.00135 | 0.00154 | 0.00177 | 0.00199 | 0.00224 | 0.0025 | 0.00278
m1 = 0.0001049 | 0.00114 | 0.0013 | 0.00148 | 0.00169 | 0.00191 | 0.00214 | 0.00238 | 0.00264
m1 = 0.0001948 | 0.00103 | 0.00118 | 0.00135 | 0.00154 | 0.00173 | 0.00193 | 0.00214 | 0.00237
m1 = 0.0002951 | 0.000958 | 0.00109 | 0.00125 | 0.00142 | 0.00158 | 0.00177 | 0.00197 | 0.00217
m1 = 0.0004065 | 0.000896 | 0.00102 | 0.00116 | 0.00132 | 0.00147 | 0.00164 | 0.00182 | 0.00201
m1 = 0.000564 | 0.000826 | 0.000939 | 0.00107 | 0.00121 | 0.00135 | 0.00151 | 0.00168 | 0.00184
m1 = 0.000759 | 0.000763 | 0.000869 | 0.000986 | 0.00112 | 0.00125 | 0.00139 | 0.00154 | 0.00169
m1 = 0.0009843 | 0.000711 | 0.000808 | 0.000917 | 0.00104 | 0.00116 | 0.00129 | 0.00143 | 0.00156
m1 = 0.001432 | 0.000635 | 0.000719 | 0.000816 | 0.000925 | 0.00103 | 0.00114 | 0.00126 | 0.00138
m1 = 0.001963 | 0.000573 | 0.000648 | 0.000736 | 0.000834 | 0.00093 | 0.00103 | 0.00114 | 0.00125
m1 = 0.003008 | 0.000498 | 0.000562 | 0.000639 | 0.00072 | 0.000807 | 0.000896 | 0.00099 | 0.00108

Settings | mass density [kg/m3]
283.15 K | 817.699
288.15 K | 813.937
293.15 K | 810.147
298.15 K | 806.337
303.15 K | 802.5
308.15 K | 798.633
313.15 K | 794.73
318.15 K | 790.785
